No end group written: not given here. *: point of attachment. BODIPYFLEthylmaleimide = Cc1cc(C)n2c1C=C1C=CC(CCC(=O)NCCN3C(=O)CC(*)C3=O)=[N+]1[B-]2(F)F
Experiments:
Ndc80c^dwarf Nuf2 N128A = assay: Fluorescence polarization direct binding to Ndc80c^dwarf bearing Nuf2 N128A; design: species or system S. cerevisiae; conditions: Ndc80c^dwarf Nuf2 N128A relative to wild-type Ndc80c^dwarf; Figure 3D
Experimental: (§1) Figure 3. Fluorescence polarization measurements of Ndc80c^dwarf binding peptides from the N-terminal extensions of Mps1 and Ipl1. (A) Polarization of fluorescence from 20 nM Bodipy-FL Mps1(137–171) (Mps1 residues 137–171 plus a C-terminal cysteine modified with Bodipy-FL -- see Methods) and Bodipy-FL Ipl1 (26–39;45–59) as a function of Ndc80c^dwarf concentration. (B) Competition binding experiment: unlabeled competitor peptides (see figure annotation) were added in twofold serial dilutions to Bodipy-FL Mps1(137–171) and Ndc80c^dwarf at final concentrations of 20 nM and 500 nM respectively. Loss of polarization indicates displacement of bound Bodipy-FL Mps1(137–171) by the competitor. (C) As in (B), with competitor Mps1(137–171) peptides containing mutations that reduce affinity for Ndc80c[40]. (D) Polarization of fluorescence from 20 nM Bodipy-FL Mps1(137–171) as a function of the concentration of Ndc80c^dwarf bearing mutations in Nuf2 that interfere with its Mps1 interaction in cells. […] For the Ipl1 peptide, the second copy of the motif, not used for the fluorescence polarization experiments, is shown in the bottom line.
(§2) We also determined the binding of the Mps1 peptide with two Ndc80c^dwarf constructs bearing mutations characterized in the other accompanying paper -- N128A and F8A P9A[48]. […]

[1] = test system: Ndc80c^dwarf Nuf2 F8A P9A; assay: Fluorescence polarization direct binding to Ndc80c^dwarf bearing Nuf2 F8A P9A; design: species or system S. cerevisiae; conditions: Ndc80c^dwarf Nuf2 F8A P9A relative to wild-type Ndc80c^dwarf; Figure 3D
Experimental: as §1, §2

Ndc80c^dwarf = assay: Pulldown of GST-fusions of Mps1 segments by Ndc80c^dwarf immobilized on Ni-NTA agarose; format: binding, S. cerevisiae; conditions: 6-His Ndc80c^dwarf on Ni-NTA agarose, 30 min incubation, SDS-PAGE read-out; Figure 1B lane 12
Text: The long, N-terminal extension (residues 1–430) of yeast Mps1 has no immediately evident homology with sequences in metazoan Mps1 shown to interact with Ndc80c. […] We examined conservation among the yeast orthologs by iterative searches with the program Jackhmmer[50]. Using the N-terminal 430 residues of S. cerevisiae Mps1 as query, we identified five segments conserved among point-centromere yeasts (Figure 1A). We carried out a set of pulldown experiments, expressing them as GST-fusions and incubating them with the “dwarf” Ndc80c construct (Ndc80c^dwarf)[51] immobilized on Ni-NTA agarose (Figure 1B). In this format, we expected avidity from GST dimerization and multivalent display of Ndc80c to enhance the assay sensitivity. Ndc80c captured only the GST fusion of a peptide containing residues 151–171 (Figure 1B, lane 12), which include the most conserved region with a consensus sequence (151)RRxRRF(I/L/F)(3–4x)RxxxLGPAxR(170)(Figure 1C). Lysine appears occasionally in place of arginine, except for the invariant R at the end of the motif. […]
Figure 1. […] The bar graph above the N-terminal domain represents conservation determined by iterative searches with Jackhmmer[50] and shown as “information content”, defined in ref[68]. […]

Ndc80c^dwarf Nuf2 N128A, sequence (P40460 115-315 limits assumed): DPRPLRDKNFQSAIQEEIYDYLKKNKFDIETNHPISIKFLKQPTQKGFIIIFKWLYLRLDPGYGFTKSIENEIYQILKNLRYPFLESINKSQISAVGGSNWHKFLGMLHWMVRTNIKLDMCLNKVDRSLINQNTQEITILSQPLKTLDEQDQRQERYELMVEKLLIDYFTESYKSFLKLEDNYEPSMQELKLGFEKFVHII
Ndc80c^dwarf Nuf2 N128A, sequence (P33895 1-158 N128A limits assumed, further chain): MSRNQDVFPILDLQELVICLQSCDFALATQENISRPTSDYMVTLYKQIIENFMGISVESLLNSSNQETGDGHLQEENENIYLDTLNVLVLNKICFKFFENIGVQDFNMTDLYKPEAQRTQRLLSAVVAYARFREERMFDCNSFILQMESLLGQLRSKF
Ndc80c^dwarf Nuf2 F8A P9A, sequence (P40460 115-335 limits assumed): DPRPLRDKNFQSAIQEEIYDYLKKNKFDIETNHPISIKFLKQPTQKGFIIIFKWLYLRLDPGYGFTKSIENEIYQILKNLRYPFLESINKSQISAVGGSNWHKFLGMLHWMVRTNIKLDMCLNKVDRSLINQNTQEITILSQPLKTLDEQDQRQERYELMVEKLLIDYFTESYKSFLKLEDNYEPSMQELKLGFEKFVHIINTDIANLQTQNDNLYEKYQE
Ndc80c^dwarf Nuf2 F8A P9A, sequence (P33895 1-173 F8A/P9A limits assumed, further chain): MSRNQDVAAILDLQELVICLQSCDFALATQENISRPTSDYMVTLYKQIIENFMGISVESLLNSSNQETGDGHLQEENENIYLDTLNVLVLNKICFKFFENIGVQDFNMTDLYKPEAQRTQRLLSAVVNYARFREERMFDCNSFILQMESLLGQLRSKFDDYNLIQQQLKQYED
Ndc80c^dwarf, sequence (P33895 1-150): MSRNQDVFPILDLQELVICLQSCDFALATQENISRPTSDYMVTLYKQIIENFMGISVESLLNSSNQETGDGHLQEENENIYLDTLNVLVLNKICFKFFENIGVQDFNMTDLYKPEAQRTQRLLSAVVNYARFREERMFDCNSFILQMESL
Ndc80c^dwarf, sequence (P40460 115-310, further chain): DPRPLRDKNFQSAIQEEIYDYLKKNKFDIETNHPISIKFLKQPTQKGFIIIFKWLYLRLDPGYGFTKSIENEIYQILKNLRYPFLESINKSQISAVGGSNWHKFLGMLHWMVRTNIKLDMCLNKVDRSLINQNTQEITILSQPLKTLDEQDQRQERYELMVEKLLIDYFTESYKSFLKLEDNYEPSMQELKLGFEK

| Substance | affinity weaker than for the wild-type protein (Ndc80c^dwarf Nuf2 N128A) | affinity weaker than for the wild-type protein [1] | capture of GST fusion by immobilized Ndc80c^dwarf (Ndc80c^dwarf) |
| --- | --- | --- | --- |
| Bodipy-FL Mps1(137–171): Mps1 residues 137–171 plus a C-terminal cysteine modified with Bodipy-FL (RQNMKEDITAKYAERRSKRFLISNRTTKLGPAKRAC(BODIPYFLEthylmaleimide)) | about 2 logs | about 2 logs | – |
| GST fusion of a peptide containing residues 151–171: GST-fusion of Mps1 residues 151–171 expressed from pGEX-6P1 (GSGGSGGSGGSGGSERRSKRFLISNRTTKLGPAKR; also: GST fusion, end not given here) | – | – | captured |
